Here are results for 1 substance from patent publication US7361643B2, “Methods for inhibiting angiogenesis” (University of Puerto Rico, priority 2000, dated 2008).

“Also recorded” adds a separate entry of the source.

The assay concerns bovine adrenal medullary microvascular endothelial cells. As to the kind of experiment: Morphology by light microscopy and scanning electron microscopy. As to conditions: 1 μg/ml tunicamycin, 2% (v/v) FBS. The class given is cell-based. Here is the method: The synchronized population of the above described bovine capillary endothelial cells was exposed to tunicamycin (lot number 10922120-07 from Boehringer-Mannheim, Indianapolis, Ind.) with no history of protein synthesis inhibition, for different lengths of time at various concentrations, as shown, e.g., in FIG. 3, in a complete EMEM containing 2% (v/v) fetal bovine serum (FBS) (heat-inactivated) at 37° C. to evaluate the morphological changes. The cells were monitored by phase-contrast light microscopy as well as by scanning electron microscopy.
For scanning electron microscopy, 5×10^3 cells were cultured on 13 mm round Thermanox coverslips in 12 well clusters (COSTAR) in complete EMEM. Cells were synchronized as mentioned above and cultured in EMEM containing either 2% (v/v) FBS (control), 10% (v/v) FBS or 2% (v/v) FBS plus 1 μg/ml tunicamycin. The coverslips were removed at specified times and the cells were fixed in 2.5% (v/v) glutaraldehyde for 30 minutes. The cells were washed three times (10 minutes each) with Millonigs (1961) isotonic phosphate buffer, pH 7.3, and treated with 1% (w/v) osmium tetroxide for 15 minutes. See MILLONIG, “Advantages of a Phosphate Buffer for Osmium Tetroxide Solutions in Fixation”, J. Appl. Physics, 32:1637 (1961), the disclosure of which is herein incorporated by reference in its entirety. […]

For tunicamycin, the “morphology by light microscopy” value is “cell shrinkage, loss of membrane contact with neighboring cells, apparent compaction of nuclei showing condensed pyknotic appearance and membrane fragmentation; also recorded: cell shrinkage, loss of membrane contact with neighboring cells, apparent compaction of nuclei showing condensed pyknotic appearance, and membrane fragmentation”. Where the note is “96 hours”, the “surface morphology by scanning electron microscopy” value was “considerable surface blebbing; also recorded: enormous surface blebbing”.
